The text below walks through data of article PMC6890677, “Surface Grafted MSI-78A Antimicrobial Peptide has High Potential for Gastric Infection Management” (Scientific Reports, 2019).

In assay [1] the test system is H. pylori 26695. Particulars: viability of the inoculum reduced by ≥99.9%, CFU on BA after 5 days, 2 replicates in 3 independent experiments. The protocol: (§1) H. pylori human strains J99 and 26695 (provided by Department of Medical Biochemistry and Biophysics, Umeå University, Sweden), NCTC 11637 (ATCC 43504) and mouse-adapted SS1 strain (provided by Unité de Pathogenèse de Helicobacter, Institut Pasteur, France) were grown following the standard procedure. Briefly, H. pylori was cultured in Blood Agar (BA; Oxoid) supplemented with 10% of defibrinated horse blood (Probiologica) and with an antibiotic cocktail (polymyxin B, vancomycin, amphotericin B, trimethoprim; all from Sigma-Aldrich) under microaerophilic conditions (<5% O2; GenBox System, BioMérieux) at 37 °C for 48 h. Afterwards, some colonies were streaked onto fresh BA medium and kept in culture in the same conditions for another 48 h. Subsequently, bacterial inoculum was adjusted to 0.03 optical density at 600 nm (OD600), which corresponds to approximately 1 × 10^7 colony forming units (CFUs)/mL[48]. Initial inoculum was confirmed by inoculation of 10 μL drops of the bacterial suspension onto BA and CFUs were counted after 5 days of incubation in the same above-mentioned settings.
(§2) The MBC was defined as the lowest AMP concentration that was able to diminish the viability of the initial bacterial inoculum by ≥99.9%. MBC determination followed the CLSI guidelines[49] but briefly, a 50 µL sample was taken from the first three lowest concentrations where no bacterial growth was observed (concentration corresponding to the MIC), serially diluted in PBS until 10^−6 and then spotted on BA. After 5 days of incubation at 37 °C in microaerophilic environment, the CFUs/mL were calculated. Two replicates of each AMP concentration were performed in three independent experiments.

For assay [2], the system named is H. pylori J99. The settings on record: viability of the inoculum reduced by ≥99.9%, CFU on BA after 5 days, 2 replicates in 3 independent experiments. The protocol: as §1, §2
The subject of assay [3] is H. pylori NTCC 11637. Particulars: viability of the inoculum reduced by ≥99.9%, CFU on BA after 5 days, 2 replicates in 3 independent experiments. The protocol:
as §1, §2

Assay [4] concerns H. pylori SS1. Particulars: H. pylori SS1 (mouse-adapted); MHB + 10% FBS, 37 °C, microaerophilic, 72 h; 2 replicates in 3 independent experiments. The protocol: as §1
(§3) The MICs of the AMPs (Table 1) against H. pylori strains were determined using the microbroth dilution method in Mueller Hinton Broth (MHB) supplemented with 10% of inactivated Fetal Bovine Serum (FBS; Gibco) and in accordance with the Clinical Laboratory Standards Institute (CLSI) guidelines. Briefly, AMPs were diluted in 0.01% of acetic acid with 0.2% Bovine Serum Albumin (BSA; Sigma) to allow AMP protonation and avoid its aggregation, respectively, following an already established protocol. The selected AMPs concentrations ranged from 2 µg/mL up to 512 µg/mL. Incubation was performed at 37 °C in microaerophilic conditions for 72 h. The MIC was defined as the first AMP concentration that prevented visible (naked eye) bacterial growth. Two replicates of each AMP concentration were performed in three independent experiments.

Assay [5] deals with H. pylori 26695. The settings on record: MHB + 10% FBS, 37 °C, microaerophilic, 72 h, 2 replicates in 3 independent experiments. On the procedure: as §1, §3
In assay [6] the test system is H. pylori J99. Particulars: MHB + 10% FBS, 37 °C, microaerophilic, 72 h, 2 replicates in 3 independent experiments. On the procedure:
as §1, §3

The subject of assay [7] is H. pylori NTCC 11637. The settings on record: MHB + 10% FBS, 37 °C, microaerophilic, 72 h, 2 replicates in 3 independent experiments. On the procedure: as §1, §3
A further assay relates to S. epidermidis. Put plainly: MIC of AMP in solution, adhesion control strain.
Assay [8] concerns H. pylori SS1. It counts as cell-based, Helicobacter pylori. Particulars: H. pylori SS1 (mouse-adapted); viability of the inoculum reduced by ≥99.9%; CFU on BA after 5 days; 2 replicates in 3 independent experiments. The protocol: as §1, §2

Where no end group is shown, it is not given here. Some results are limits rather than exact numbers.

As for GIGKFLKKAKKFAKAFVKILKK [MSI-78A], the MBC (as a rule, the smallest concentration meeting the test's criterion for killing) against H. pylori 26695 [1] amounted to 32 µg/mL; against H. pylori J99 [2], 128 µg/mL; in the assay on H. pylori NTCC 11637 [3], 256 µg/mL; in the assay on H. pylori SS1 [8], 256 µg/mL. Moreover, the MIC (usually the lowest concentration that inhibits growth of the organism) in the assay with H. pylori SS1 [4] turned out to be 128 µg/mL; with H. pylori 26695 [5], 16 µg/mL; in the assay with H. pylori J99 [6], 64 µg/mL; in the assay with H. pylori NTCC 11637 [7] it was 128 µg/mL; with S. epidermidis, 2 µg/mL.
Turning to GIGKFLKKAKKFGKAFVKILKK [MSI-78], the MBC was 128 µg/mL against H. pylori 26695 [1], greater than 512 µg/mL in the assay on H. pylori J99 [2], greater than 512 µg/mL in the assay on H. pylori NTCC 11637 [3] and greater than 512 µg/mL with H. pylori SS1 [8]. In addition, the MIC with H. pylori SS1 [4] came to 128 µg/mL; in the assay on H. pylori 26695 [5] it was 64 µg/mL; in the assay on H. pylori J99 [6], 256 µg/mL; in the assay with H. pylori NTCC 11637 [7], 256 µg/mL.
GLLRASSVWGRKYYVDLAGCAKA [Odorranain-HP]: the MBC in the assay on H. pylori 26695 [1], with H. pylori J99 [2], with H. pylori NTCC 11637 [3] and in the assay on H. pylori SS1 [8] was greater than 512 µg/mL throughout. The MIC in the assay with H. pylori SS1 [4], with H. pylori 26695 [5], with H. pylori J99 [6] and in the assay with H. pylori NTCC 11637 [7] was greater than 512 µg/mL in each case.
